Reference: ChEMBL document CHEMBL4359931, “Synthesis, biological evaluation and molecular docking studies of new amides of 4-bromothiocolchicine as anticancer agents” (Bioorg Med Chem, 2019)
The source made the active and inactive calls. The calls are words filed in the database; no cut-off is given here.

Legend:
MCF7 [1] = test: Cell cycle arrest in human MCF7 cells assessed as accumulation in subG1 phase at 5 times of antiproliferative IC50 incubated for 72 hrs by propidium iodide based flow cytometry (reference value: 3.59 %); type: functional
MCF7 [2] = test: Cell cycle arrest in human MCF7 cells assessed as accumulation in S phase at 5 times of antiproliferative IC50 incubated for 72 hrs by propidium iodide based flow cytometry (reference value: 19.8 %); type: functional
MCF7 [3] = test: Cell cycle arrest in human MCF7 cells assessed as accumulation in G2 phase at 5 times of antiproliferative IC50 incubated for 48 hrs by propidium iodide based flow cytometry (reference value: 16 %); type: functional
[4] = Cell cycle arrest in human ALL5 cells assessed as accumulation in G2 phase at 5 times of antiproliferative IC50 incubated for 72 hrs by propidium iodide based flow cytometry (reference value: 11.3 %); type: functional
[5] = Cell cycle arrest in human ALL5 cells assessed as accumulation in G1 phase at 5 times of antiproliferative IC50 incubated for 72 hrs by propidium iodide based flow cytometry (reference value: 59.7 %); type: functional
MCF7 [6] = test: Cell cycle arrest in human MCF7 cells assessed as accumulation in subG1 phase at 5 times of antiproliferative IC50 incubated for 48 hrs by propidium iodide based flow cytometry (reference value: 9.19 %); type: functional
Homo sapiens [7] = species: Homo sapiens; test: Induction of apoptosis in human ALL5 cells assessed as reduction in 116 kDa PARP expression at 43 uM incubated for 24 and 48 hrs by immunoblot analysis; type: functional, cell-based
MCF7 [8] = test: Cell cycle arrest in human MCF7 cells assessed as accumulation in G2 phase at 5 times of antiproliferative IC50 incubated for 72 hrs by propidium iodide based flow cytometry (reference value: 18.6 %); type: functional
[9] = Cell cycle arrest in human ALL5 cells assessed as accumulation in G2 phase at 5 times of antiproliferative IC50 incubated for 48 hrs by propidium iodide based flow cytometry (reference value: 11.2 %); type: functional
MCF7 [10] = test: Cell cycle arrest in human MCF7 cells assessed as accumulation in S phase at 5 times of antiproliferative IC50 incubated for 24 hrs by propidium iodide based flow cytometry (reference value: 19.9 %); type: functional
Homo sapiens [11] = species: Homo sapiens; test: Induction of cell cycle arrest in human ALL5 cells assessed as increase in 4 N DNA at 5 times of antiproliferative IC50 incubated for 24 hrs by propidium iodide based flow cytometry; type: functional
Homo sapiens [12] = species: Homo sapiens; test: Induction of cell death in human ALL5 cells assessed as decrease in 4 N DNA at 5 times of antiproliferative IC50 incubated for 72 hrs by propidium iodide based flow cytometry; type: functional
MCF7 [13] = test: Cell cycle arrest in human MCF7 cells assessed as accumulation in subG1 phase at 5 times of antiproliferative IC50 incubated for 24 hrs by propidium iodide based flow cytometry (reference value: 7.79 %); type: functional
[14] = Cell cycle arrest in human ALL5 cells assessed as accumulation in G2 phase at 5 times of antiproliferative IC50 incubated for 24 hrs by propidium iodide based flow cytometry (reference value: 10.6 %); type: functional
Homo sapiens [15] = species: Homo sapiens; test: Induction of cell cycle arrest in human ALL5 cells assessed as increase in 4 N DNA at 5 times of antiproliferative IC50 incubated for 48 hrs by propidium iodide based flow cytometry; type: functional
MCF7 [16] = test: Cell cycle arrest in human MCF7 cells assessed as accumulation in G1 phase at 5 times of antiproliferative IC50 incubated for 72 hrs by propidium iodide based flow cytometry (reference value: 58 %); type: functional
MCF7 [17] = test: Cell cycle arrest in human MCF7 cells assessed as accumulation in S phase at 5 times of antiproliferative IC50 incubated for 48 hrs by propidium iodide based flow cytometry (reference value: 34 %); type: functional
[18] = Cell cycle arrest in human ALL5 cells assessed as accumulation in G1 phase at 5 times of antiproliferative IC50 incubated for 24 hrs by propidium iodide based flow cytometry (reference value: 68.1 %); type: functional
MCF7 [19] = test: Cell cycle arrest in human MCF7 cells assessed as accumulation in G2 phase at 5 times of antiproliferative IC50 incubated for 24 hrs by propidium iodide based flow cytometry (reference value: 22.4 %); type: functional
[20] = Cell cycle arrest in human ALL5 cells assessed as accumulation in S phase at 5 times of antiproliferative IC50 incubated for 24 hrs by propidium iodide based flow cytometry (reference value: […]); type: functional
MCF7 [21] = test: Cell cycle arrest in human MCF7 cells assessed as accumulation in G1 phase at 5 times of antiproliferative IC50 incubated for 24 hrs by propidium iodide based flow cytometry (reference value: 49.9 %); type: functional
Homo sapiens [22] = species: Homo sapiens; test: Induction of apoptosis in human ALL5 cells assessed as increase in 85 kDa PARP expression at 43 uM incubated for 48 hrs by immunoblot analysis; type: functional, cell-based
MCF7 [23] = test: Cell cycle arrest in human MCF7 cells assessed as accumulation in G1 phase at 5 times of antiproliferative IC50 incubated for 48 hrs by propidium iodide based flow cytometry (reference value: 40.8 %); type: functional
[24] = Cell cycle arrest in human ALL5 cells assessed as accumulation in S phase at 5 times of antiproliferative IC50 incubated for 72 hrs by propidium iodide based flow cytometry (reference value: 13.5 %); type: functional
[25] = Cell cycle arrest in human ALL5 cells assessed as accumulation in G1 phase at 5 times of antiproliferative IC50 incubated for 48 hrs by propidium iodide based flow cytometry (reference value: 67.4 %); type: functional
[26] = Cell cycle arrest in human ALL5 cells assessed as accumulation in subG1 phase at 5 times of antiproliferative IC50 incubated for 48 hrs by propidium iodide based flow cytometry (reference value: 11 %); type: functional
[27] = Cell cycle arrest in human ALL5 cells assessed as accumulation in subG1 phase at 5 times of antiproliferative IC50 incubated for 24 hrs by propidium iodide based flow cytometry (reference value: 10.5 %); type: functional
[28] = Cell cycle arrest in human ALL5 cells assessed as accumulation in S phase at 5 times of antiproliferative IC50 incubated for 48 hrs by propidium iodide based flow cytometry (reference value: 10.3 %); type: functional
[29] = Cell cycle arrest in human ALL5 cells assessed as accumulation in subG1 phase at 5 times of antiproliferative IC50 incubated for 72 hrs by propidium iodide based flow cytometry (reference value: 15.5 %); type: functional
[30] = Antiproliferative activity against human ALL5 cells assessed as reduction in cell viability incubated for 120 hrs by MTT assay; type: functional, cell-based; conditions: ALL5, 120 h

SMILES: COc1cc2c(c(OC)c1OC)-c1ccc(OC)c(=O)cc1[C@@H](NC(C)=O)CC2 [COLCHICINE]
- Activity (MCF7 [1]): 12.6%
- Activity (MCF7 [2]): 7.4%
- Activity (MCF7 [3]): 68.3%
- Activity [4]: 9.05%
- Activity [5]: 21.7%
- Activity (MCF7 [6]): 9.33%
- Activity (Homo sapiens [7]): Active
- Activity (MCF7 [8]): 64%
- Activity [9]: 22.3%
- Activity (MCF7 [10]): 13%
- Activity (Homo sapiens [11]): Active
- Activity (Homo sapiens [12]): Active
- Activity (MCF7 [13]): 5.51%
- Activity [14]: 14.4%
- Activity (Homo sapiens [15]): Active
- Activity (MCF7 [16]): 16%
- Activity (MCF7 [17]): 7.86%
- Activity [18]: 54%
- Activity (MCF7 [19]): 72.2%
- Activity [20]: 12%
- Activity (MCF7 [21]): 9.33%
- Activity (Homo sapiens [22]): Active
- Activity (MCF7 [23]): 14.5%
- Activity [24]: 17.1%
- Activity [25]: 33.2%
- Activity [26]: 27.4%
- Activity [27]: 19.7%
- Activity [28]: 17.1%
- Activity [29]: 52.1%
- IC50 [30]: 8.6 nM
